Reference: US7582282B2, “Methods for optimizing clinical responsiveness to methotrexate therapy using metabolite profiling and pharmacogenetics” (Prometheus Laboratories Inc., priority 2003, dated 2009)
Each block holds one molecule with its values, some of them ahead of it.

Assays:
[1] = Red blood cell MTXPG concentrations in 14 polyarthritis patients on low dose weekly methotrexate (HPLC-fluorometry)
Protocol: The liquid chromatograph was an Agilent 1100 HPLC chemstation system composed of a quaternary pump, a system controller, an autoinjector, a sample cooler kept at 4° C., and a fluorometer. […] Methotrexate polyglutamates were detected with post-column derivatization using a photochemical reactor unit (Aura Industries, New York, N.Y.) equipped with an elongated 254 nm low pressure mercury ultraviolet lamp and containing a 1/16″ outer diameter TEFLON™ tubing (internal diameter 0.25 mm) assembled as a knitted coil and connected on-line between the analytical column and fluorometer. […] Methotrexate polyglutamate photolytic products were measured at an excitation wavelength of 274 nm and an emission wavelength of 464 nm, unless otherwise indicated. The retention times described herein were measured from time of injection to time of detection at the post-reactor unit fluorometer.
HPLC separation was performed on a 25 cm×4.6 mm X Terra MS C18 column (Waters, Milford, Mass.), 5 μm particle size, protected by a guard column. […] Methotrexate polyglutamate photolytic products were analyzed at an excitation wavelength of 274 nm and an emission wavelength of 464 nm. […]
Results were expressed as nmol/L packed red blood cells, and patient results were expressed as an average plus or minus the standard error of the mean (±SEM). […]

[2] = system: patients with rheumatoid arthritis; assay: Cross-sectional clinical study of methotrexate effects in patients with rheumatoid arthritis (joint counts, VAS, mHAQ; regression analyses); type: in vivo, human; parameters: key to Physician's assessment of disease activity visual analog score (VAS), mean / Physician assessment of disease activity VAS: 10 cm visual analog scale; key to Modified health assessment questionnaire (mHAQ) score, mean / Modified Health assessment questionnaire: mean of 8 items, each 0 = without any difficulty to 3 = unable to do
Protocol: In this cross-sectional study, eligibility was limited to patients of at least 18 years of age who met the revised criteria of the American Rheumatism Association for Rheumatoid Arthritis and had received low dose methotrexate therapy for at least three months. Some patients were on additional medications for rheumatoid arthritis, including low dose corticosteroids (<10 mg day), and folic acid supplementation (1 mg/day). The Institutional Review Board approved the study, and patient consent was obtained.
Patient characteristics were collected at the time of the enrollment in the clinical study. Clinical assessment included a tender joint count, a swollen joint count, a Physician's Assessment of Disease Activity (using a 10 cm visual analog scale (VAS)), and a Patient's Assessment of Physical Function using the modified-Health Assessment Questionnaire (m-HAQ). The mHAQ is the average score obtained on eight items addressed to the patient to assess loss of typical lifestyle activities. Scoring of items within each is from 0 (without any difficulty) to 3 (unable to do). The eight items are as follows: 1: dress yourself, 2: get in and out of bed, 3: lift a full glass to your mouth, 4: walk, 5: wash and dry entire body, 6: bend down and pick up clothing, 7: turn faucets on and off, and 8: get in and out of a car. In addition to these standards, the American College of Rheumatology measures, and a Physician's Assessment of Response to methotrexate scored on a 10 cm visual analogue scale (VAS) were also used. In this visual analogue scale, “0” is defined as a perfect response, while “10” is defined as no response. Based on these definitions, a physician's assessment of response to MTX below group median corresponds to a perception of response above group median. Clinical data were collected on case report forms at the time of the clinical visit, and the physician and each patient were blinded to all laboratory parameters throughout the entire study. Furthermore, using the VAS for the physician's assessment of disease activity and the physician's assessment of response to methotrexate, the highest 25th percentiles for disease activity or response to methotrexate were calculated. Chi-square analysis was applied, and odds ratios (OR) were calculated.
Genotyping was performed as follows: Whole blood (EDTA) was drawn the day of the clinical visit; genomic DNA was extracted using a Generation Purification Capture Column (Gentra Systems, Inc; Minneapolis, Minn.). The RFC-1 G80A polymorphism, which results in a […] substitution at codon 27 of RFC-1, was detected using the PCR RFLP method described in Chango et al., supra, 2000. The ATIC C347G polymorphism, which results in a threonine to serine substitution at position 116 of ATIC, was determined with a real time TaqMan allelic discrimination assay performed using fluorogenic 3′-minor groove binding probes. The forward primer sequence was 5′-[…]-3′ (SEQ ID NO:3), and the reverse primer sequence was 5′-[…]-3′ (SEQ ID NO:4). Allelic discrimination was performed using the wild-type fluorescent probe 5′-FAM-[…]-MGB 3′ (SEQ ID NO:5) and the mutant fluorescent probe 5′-VIC-[…]-MGB 3′ (SEQ ID NO:6). Final reaction conditions were as follows: 900 nM of each primer, 200 nM of each probe, 5 ng genomic DNA, and a 1×TaqMan master mix (Applied Biosystems; Foster City, Calif.). PCR reactions were incubated for one 2-minute cycle at 50° C., a 10-minute cycle at 95° C., and 40 cycles of 95° C. for 15 seconds, 58° C. for 15 seconds, and finally 60° C. for 45 seconds. Statistical analyses were performed using Statistica (StatSoft Inc., Tulsa, Okla.) essentially as follows. […]

[3] = human, in vivo
Protocol: Red blood cell methotrexate polyglutamate concentrations were measured as described further below using HPLC-fluorometry with post-column photo-oxidation technique. The technologist in charge of quantification of red blood cell methotrexate polyglutamates was blinded to patients' clinical information.
Mobile phase B consisted of acetonitrile.
Red blood cell long-chain MTXPG concentrations were measured as described previously using an HPLC-fluorometry procedure with post-column photo-oxidation technique (Dervieux, Clin Chem. (2003)). The technologist performing the quantification of RBC MTXPGs (up to the penta-order of glutamation) was blinded to patient's information.
The quantification limit of the analytical method is 5 nmol/L and the detection limit is 2 nmol/L packed RBC (for all MTXPG species) (Dervieux, Clin Chem. (2003)).

[4] = multivariate regression with RFC-1, ATIC, TSER genotypes, adjusted for corticosteroids and folic acid
[5] = 108 patients on methotrexate, mean ± SEM
[6] = 108 patients on methotrexate, median (range)
[7] = multivariate linear regression adjusted for corticosteroids and folic acid

Average share of total methotrexate polyglutamates ([1]; 14 patients, RBC): 55%
Median RBC long-chain MTXPGs concentration (MTXPG3) [3]: 40 nmol/L
RBC long-chain MTXPGs concentration (MTXPG3), range [3]: <5 to 131 nmol/L
Structure (SMILES): CN(Cc1cnc2nc(N)nc(N)c2n1)c1ccc(C(=O)N[C@@H](CCC(=O)N[C@@H](CCC(=O)N[C@@H](CCC(=O)O)C(=O)O)C(=O)O)C(=O)O)cc1 [MTXPG3, 4-amino-10-methylpteroyltri-glutamic acid]
Logistic regression estimate for MTXPG3: probability of total number of tender and swollen joints below group median ([2]; FIG. 4A, model with MTXPG3 only, estimate ± standard error): 0.022±0.008
Logistic regression estimate for MTXPG3: probability of physician assessment of Disease activity VAS below group median ([2]; FIG. 4B, model with MTXPG3 only): 0.024±0.009
Logistic regression estimate for MTXPG3: probability of physician assessment of response to methotrexate VAS below group median ([2]; FIG. 4C, model with MTXPG3 only): 0.034±0.01
Logistic regression estimate for MTXPG3: probability of mHAQ below group median ([2]; FIG. 4D, model with MTXPG3 only): 0.014±0.008
Logistic regression estimate for MTXPG3: probability of total number of tender and swollen joints below group median ([2]; FIG. 5A, model with MTXPG3 and RFC-1 G80A genotype): 0.022±0.009
Logistic regression estimate for MTXPG3: probability of physician assessment of Disease activity VAS below group median ([2]; FIG. 5B, model with MTXPG3 and RFC-1 G80A genotype): 0.024±0.009
Logistic regression estimate for MTXPG3: probability of physician assessment of response to methotrexate VAS below group median ([2]; FIG. 5C, model with MTXPG3 and RFC-1 G80A genotype): 0.033±0.010
Logistic regression estimate for MTXPG3: probability of mHAQ below group median ([2]; FIG. 5D, model with MTXPG3 and RFC-1 G80A genotype): 0.015±0.008
Logistic regression estimate for MTXPG3: probability of total number of tender and swollen joints below group median ([2]; FIG. 6A, model with MTXPG3 and ATIC C347G genotype): 0.024±0.009
Logistic regression estimate for MTXPG3: probability of physician assessment of Disease activity VAS below group median ([2]; FIG. 6B, model with MTXPG3 and ATIC C347G genotype): 0.025±0.009
Logistic regression estimate for MTXPG3: probability of physician assessment of response to methotrexate VAS below group median ([2]; FIG. 6C, model with MTXPG3 and ATIC C347G genotype): 0.038±0.010
Logistic regression estimate for MTXPG3: probability of mHAQ below group median ([2]; FIG. 6D, model with MTXPG3 and ATIC C347G genotype): 0.013±0.008
Logistic regression estimate for MTXPG3: probability of total number of tender and swollen joints below group median ([2]; FIG. 7A, model with MTXPG3 and PGENi (RFC-1, ATIC)): 0.023±0.009
Logistic regression estimate for MTXPG3: probability of physician assessment of Disease activity VAS below group median ([2]; FIG. 7B, model with MTXPG3 and PGENi (RFC-1, ATIC)): 0.025±0.009
Logistic regression estimate for MTXPG3: probability of physician assessment of response to methotrexate VAS below group median ([2]; FIG. 7C, model with MTXPG3 and PGENi (RFC-1, ATIC)): 0.036±0.010
Logistic regression estimate for MTXPG3: probability of mHAQ below group median ([2]; FIG. 7D, model with MTXPG3 and PGENi (RFC-1, ATIC)): 0.014±0.009
MTXPG3 estimate, logistic regression: probability of physician's assessment of patient's response to MTX VAS≦2 cm ([2]; FIG. 12B): 0.035±0.01
Estimate ± SEM of RBC MTXPG3 (nmol/L) for Modified Health assessment questionnaire [2, 4]: −0.002 ± 0.002
Estimate ± SEM of RBC MTXPG3 (nmol/L) for Number of Swollen joints [2, 4]: −0.035 ± 0.019
Estimate ± SEM of RBC MTXPG3 (nmol/L) for Number of Tender joints [2, 4]: −0.047 ± 0.23
Estimate ± SEM of RBC MTXPG3 (nmol/L) for Patient's Global assessment of disease activity VAS [2, 4]: −0.004 ± 0.009
Estimate ± SEM of RBC MTXPG3 (nmol/L) for Physician's Global assessment of disease activity VAS [2, 4]: −0.025 ± 0.008
Estimate ± SEM of RBC MTXPG3 (nmol/L) for Physician's assessment of Patient's response to MTX VAS [2, 4]: −0.026 ± 0.007
Fold more likely to have clinical responsiveness to the chemotherapy above average ([2]; patients with RBC MTXPG3 levels above 60 nmol/L): 12.7 fold

RBC concentration in a patient sample ([1]; one patient on 17.5 mg weekly methotrexate for at least 3 months): 27 nmol/L
Structure (SMILES): CN(Cc1cnc2nc(N)nc(N)c2n1)c1ccc(C(=O)N[C@@H](CCC(=O)O)C(=O)O)cc1 [Methotrexate, 4-amino-10-methylpteroylglutamic acid]
Modified Health assessment questionnaire [2, 5]: 0.55 ± 0.05
Number of Swollen joints (maximum 22) [2, 5]: 4.0 ± 0.5
Number of Tender joints (maximum 22) [2, 5]: 5.0 ± 0.6
Patient assessment of disease activity VAS [2, 5]: 4.1 ± 0.2
Physician assessment of disease activity VAS [2, 5]: 3.5 ± 0.2
Modified Health Assessment Questionnaire (mHAQ score) [2, 6]: 0.375 (0-2)
Number of swollen and tender joints (total number) [2, 6]: 5.5 (0-44)
Physician assessment of disease activity (10 cm VAS score) [2, 6]: 2.9 (0.1-8.4)
Physician assessment of response to Methotrexate VAS ([2]; 108 patients, mean ± SEM): 2.7 ± 0.2
Physician assessment of response to methotrexate (10 cm VAS score) ([2]; 108 patients, median (range), 0 perfect response, 10 no response): 2.1 (0.1-8.3)
Mean number of swollen joints ([2]; PGENi=0 (n=58 patients)): 5.5±0.8
Modified health assessment questionnaire (mHAQ) score, mean ([2]; PGENi=0 (n=58 patients)): 0.68±0.07
Physician's assessment of disease activity visual analog score (VAS), mean ([2]; PGENi=0 (n=58 patients)): 4.1±0.3
Physician's assessment of response to MTX, mean ([2]; PGENi=0 (n=58 patients)): 3.0±0.2
Mean number of tender joints ([2]; PGENi=0 (n=58 patients), PGENi from RFC-1, ATIC, TS homozygosity): 6.4±0.9
Mean number of swollen joints ([2]; PGENi=1 to 3 (n=50 patients)): 2.3±0.4
Mean number of tender joints ([2]; PGENi=1 to 3 (n=50 patients)): 3.3±0.9
Modified health assessment questionnaire (mHAQ) score, mean ([2]; PGENi=1 to 3 (n=50 patients)): 0.39±0.06
Physician's assessment of disease activity visual analog score (VAS), mean ([2]; PGENi=1 to 3 (n=50 patients)): 2.6±0.3
Physician's assessment of response to MTX, mean ([2]; PGENi=1 to 3 (n=50 patients)): 2.3±0.3
Estimate ± SEM of methotrexate dose (mg/week) for Modified Health assessment questionnaire [2, 7]: −0.017 ± 0.009; p = 0.09
Estimate ± SEM of methotrexate dose (mg/week) for Number of Tender joints [2, 7]: −0.17 ± 0.12; p = 0.15
Estimate ± SEM of methotrexate dose (mg/week) for Physician assessment of disease activity VAS [2, 7]: −0.088 ± 0.044; p = 0.06
Fold more likely to have a good response to methotrexate therapy ([2]; patients with a PGENi between 1-3 (sum of homozygous variant genotypes)): 3.7 fold
Fold more likely to have Physician's Assessment of Patient's Response to Methotrexate VAS≦2 cm (good response) ([2]; pharmacogenetic index above 2 (index 0 to 5, variant alleles counted)): 4.7 fold
